Among the data in US11596639B2, “Substituted indole Mcl-1 inhibitors” (Vanderbilt University, priority 2016, dated 2023) are GI50 and Ki values, retold here.

Assay [1] deals with H929 human cancer cell lines. In words: Cellular viability / proliferation (Cell TiterGlo, 72 h). The assay is classed as cell-based. As for the experimental part: Cellular Viability of Human Tumor Cell Lines
To evaluate compound effect on cellular proliferation, cells were plated at 1,000 cells/well in 96-well tissue culture plates in a total volume of 90 μL medium supplemented with 10% FBS (Sigma, Saint Louis, Mo.). 24 hours later, 10 μL of compound (in a 2-fold serial dilution) is added to the cells for a top concentration of 50 μM and a final DMSO concentration <1%. After 72 hours, 50 μL of Cell TiterGlo (Promega, Madison, Wis., USA) reagent is added to each well and plates are incubated at room temperature, in the dark, for 30 minutes. Luminescence is measured on a BioTek Cytation 3. Luminescence values are imported into a template in XLFit (Guildford, Surrey, UK) that uses a four-parameter fit to generate an IC50 value for each compound dilution series on the plate.

Another assay deals with Mcl-1 (Homo sapiens (Human), UniProt Q07820). In words: Fluorescence polarization anisotropy (FPA) competition assay, FITC-Bak or FITC-Bim BH3 peptide. Format: binding. The following applies: read-out: Ki for Inhibition of Mcl-1 by FPA assay. A general note: In fluorescence polarisation assays a small probe gives low polarisation when free and higher when bound to something large.
Mcl-1, sequence (Q07820 172-327): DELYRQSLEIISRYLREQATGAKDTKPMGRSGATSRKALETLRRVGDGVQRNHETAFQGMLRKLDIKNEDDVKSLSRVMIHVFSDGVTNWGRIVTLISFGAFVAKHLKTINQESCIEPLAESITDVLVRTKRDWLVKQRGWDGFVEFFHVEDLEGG

[2] abbreviates: Homo sapiens, NCI-H929, 72 h, read-out: GI50 on cellular proliferation of H929 human cancer cell lines, H929 cells, 72 h, Cell TiterGlo, 10% FBS.
Where [3] appears, read: read-out: GI50 on cellular proliferation of H929 human cancer cell lines, H929 cells, 72 h, Cell TiterGlo, 10% FBS.

Each structure is given as a SMILES string. Like-named read-outs stand apart in the source and are kept apart here. A value given as a limit tells only on which side of the number the result lay.

One may read the Ki as a measure of affinity in units of concentration, obtained from inhibition or displacement. Consider `Cc1cc(OCCCc2c3n(c4c(-c5c(C)ncnc5C)c(C)ccc24)[C@H](C)CN(c2cccc4cc(C(=O)O)n(Cc5ccccn5)c24)C3=O)cc(C)c1Cl` (atropisomer, axis not shown) [Example 271, (R)-7-(10-(3-(4-chloro-3,5-dimethylphenoxy)propyl)-6-(4,6-dimethylpyrimidin-5-yl)-4,7-dimethyl-1-oxo-3,4-dihydropyrazino[1,2-a]indol-2(1H)-yl)-1-(pyridin-2-ylmethyl)-1H-indole-2-carboxylic acid], for which the GI50 in assay [1] (setting [2]) stood at 0.26 µM. The Ki at Mcl-1 is below 0.001 µM.

Turning to `COC(=O)c1ccc2c(c1)c(N1C[C@@H](C)n3c(c(CCCOc4cc(C)c(Cl)c(C)c4)c4ccc(Cl)c(-c5c(C)nn(C)c5C)c43)C1=O)cn2C` (single isomer, unassigned) [Example 204], in assay [1] (setting [2]), the GI50 was 1 µM. In addition, at Mcl-1, the Ki was 0.0011 µM.

Regarding `COC(=O)c1ccc2c(c1)c(N1C[C@@H](C)n3c(c(CCCOc4cc(C)c(Cl)c(C)c4)c4ccc(Cl)c(-c5c(C)nn(C)c5C)c43)C1=O)cn2C` (single isomer, unassigned) [Example 207], in assay [1] (setting [3]), the GI50 was determined as 0.75 µM. Further, the Ki at Mcl-1 was below 0.001 µM.

Regarding `Cc1cc(OCCCc2c3n(c4c(-c5c(C)nn(C)c5C)c(Cl)ccc24)[C@H](C)CN(c2coc4ccccc24)C3=O)cc(C)c1Cl` (single isomer, unassigned) [Example 237], in assay [1] (setting [2]), the GI50 was 7.6 µM. On Mcl-1, the Ki worked out at 0.014 µM.

On to `Cc1cc(OCCCc2c3n(c4c(-c5c(C)nn(C)c5C)c(Cl)ccc24)[C@H](C)CN(c2coc4ccccc24)C3=O)cc(C)c1Cl` (single isomer, unassigned) [Example 246], for which, in assay [1] (setting [3]), the GI50 amounted to 5.3 µM. Further, the Ki at Mcl-1 amounted to 0.0086 µM.

As for `Cc1cc(OCCCc2c3n(c4c(-c5c(C)nn(C)c5C)c(Cl)ccc24)CCCN(c2cc(C(=O)O)c4c(Br)cn(C)c4c2)C3=O)cc(C)c1Cl` [Example 2, 3-Bromo-6-(8-chloro-11-(3-(4-chloro-3,5-dimethylphenoxy)propyl)-1-oxo-7-(1,3,5-trimethyl-1H-pyrazol-4-yl)-4,5-dihydro-1H-[1,4]diazepino[1,2-a]indol-2(3H)-yl)-1-methyl-1H-indole-4-carboxylic acid], in assay [1] (setting [2]), the GI50 was found to be 8.3 µM. Also, at Mcl-1, the Ki is below 0.001 µM.

Consider `Cc1cc(OCCCc2c(C(=O)N3CCN(c4cccc(C(=O)O)c4)CC3)[nH]c3c(-c4c(C)nn(C)c4C)c(Cl)ccc23)cc(C)c1Cl` [Example 732, 3-(4-(6-chloro-3-(3-(4-chloro-3,5-dimethylphenoxy)propyl)-7-(1,3,5-trimethyl-1H-pyrazol-4-yl)-1H-indole-2-carbonyl)piperazin-1-yl)benzoic acid], for which, at Mcl-1, the Ki is 0.038 µM.

Consider `Cc1cc(OCCCc2c(C(=O)N3CCN(c4cncc(C(=O)O)c4)CC3)n(Cc3cccnc3)c3c(-c4c(C)nn(C)c4C)c(Cl)ccc23)cc(C)c1Cl` [Example 734, 5-(4-(6-chloro-3-(3-(4-chloro-3,5-dimethylphenoxy)propyl)-1-(pyridin-3-ylmethyl)-7-(1,3,5-trimethyl-1H-pyrazol-4-yl)-1H-indole-2-carbonyl)piperazin-1-yl)nicotinic acid], for which the Ki on Mcl-1 is above 0.2 µM.

For `Cc1cc(OCCCc2c(C(=O)N3CCN(c4cccc(C(=O)O)c4)CC3)n(Cc3cccnc3)c3c(-c4c(C)nn(C)c4C)c(Cl)ccc23)cc(C)c1Cl` [Example 735, 3-(4-(6-chloro-3-(3-(4-chloro-3,5-dimethylphenoxy)propyl)-1-(pyridin-3-ylmethyl)-7-(1,3,5-trimethyl-1H-pyrazol-4-yl)-1H-indole-2-carbonyl)piperazin-1-yl)benzoic acid], the Ki on Mcl-1 stood at 0.052 µM.

For `Cc1cc(CCCCc2c(C(=O)N3CCN(c4ccc(C(=O)O)nc4)CC3)n(Cc3cccnc3)c3c(-c4c(C)nn(C)c4C)c(Cl)ccc23)cc(C)c1Cl` [Example 737, 5-(4-(6-Chloro-3-(4-(4-chloro-3,5-dimethylphenyl)butyl)-1-(pyridin-3-ylmethyl)-7-(1,3,5-trimethyl-1H-pyrazol-4-yl)-1H-indole-2-carbonyl)piperazin-1-yl)picolinic acid], the Ki on Mcl-1 turned out to be 0.14 µM.

As to `Cc1cc(CCCCc2c(C(=O)N3CCN(c4ccnc(C(=O)O)c4)CC3)[nH]c3c(-c4c(C)nn(C)c4C)c(Cl)ccc23)cc(C)c1Cl` [Example 738, 4-(4-(6-Chloro-3-(4-(4-chloro-3,5-dimethylphenyl)butyl)-7-(1,3,5-trimethyl-1H-pyrazol-4-yl)-1H-indole-2-carbonyl)piperazin-1-yl)picolinic acid], on Mcl-1, the Ki is 0.2 µM.

In the case of `Cc1cc(CCCCc2c(C(=O)N3CCN(c4ccccc4C(=O)O)CC3)n(Cc3cccnc3)c3c(-c4c(C)nn(C)c4C)c(Cl)ccc23)cc(C)c1Cl` [Example 739, 2-(4-(6-Chloro-3-(4-(4-chloro-3,5-dimethylphenyl)butyl)-1-(pyridin-3-ylmethyl)-7-(1,3,5-trimethyl-1H-pyrazol-4-yl)-1H-indole-2-carbonyl)piperazin-1-yl)benzoic acid], the Ki at Mcl-1 came out at 0.073 µM.

Consider `Cc1cc(CCCCc2c(C(=O)N3CCN(c4cncc(C(=O)O)c4)CC3)[nH]c3c(-c4c(C)nn(C)c4C)c(Cl)ccc23)cc(C)c1Cl` [Example 740, 5-(4-(6-Chloro-3-(4-(4-chloro-3,5-dimethylphenyl)butyl)-7-(1,3,5-trimethyl-1H-pyrazol-4-yl)-1H-indole-2-carbonyl)piperazin-1-yl)nicotinic acid], for which the Ki at Mcl-1 worked out at 0.085 µM.

`Cc1cc(CCCCc2c(C(=O)N3CCN(c4cc(C(=O)O)ccn4)CC3)n(Cc3cccnc3)c3c(-c4c(C)nn(C)c4C)c(Cl)ccc23)cc(C)c1Cl` [Example 741, 2-(4-(6-Chloro-3-(4-(4-chloro-3,5-dimethylphenyl)butyl)-1-(pyridin-3-ylmethyl)-7-(1,3,5-trimethyl-1H-pyrazol-4-yl)-1H-indole-2-carbonyl)piperazin-1-yl)isonicotinic acid]: the Ki at Mcl-1 was above 0.2 µM.

As for `Cc1cc(CCCCc2c(C(=O)N3CCN(c4ccnc(C(=O)O)c4)CC3)n(Cc3cccnc3)c3c(-c4c(C)nn(C)c4C)c(Cl)ccc23)cc(C)c1Cl` [Example 742, 4-(4-(6-Chloro-3-(4-(4-chloro-3,5-dimethylphenyl)butyl)-1-(pyridin-3-ylmethyl)-7-(1,3,5-trimethyl-1H-pyrazol-4-yl)-1H-indole-2-carbonyl)piperazin-1-yl)picolinic acid], the Ki on Mcl-1 is above 0.2 µM.

Take `Cc1cc(CCCCc2c(C(=O)N3CCN(c4ccccc4C(=O)O)CC3)[nH]c3c(-c4c(C)nn(C)c4C)c(Cl)ccc23)cc(C)c1Cl` [Example 744, 2-(4-(6-Chloro-3-(4-(4-chloro-3,5-dimethylphenyl)butyl)-7-(1,3,5-trimethyl-1H-pyrazol-4-yl)-1H-indole-2-carbonyl)piperazin-1-yl)benzoic acid]: at Mcl-1, the Ki was found to be 0.03 µM.

As for `Cc1cc(OCCCc2c(C(=O)N3CCC(C(=O)O)C3)[nH]c3c(-c4c(C)ncnc4C)c(Cl)ccc23)cc(C)c1Cl` (stereo not drawn) [Example 745, 1-[6-Chloro-3-[3-(4-chloro-3,5-dimethyl-phenoxy)propyl]-7-(4,6-dimethylpyrimidin-5-yl)-1H-indole-2-carbonyl]pyrrolidine-3-carboxylic acid], at Mcl-1, the Ki worked out at 0.044 µM.

With `Cc1cc(OCCCc2c(C(=O)NCc3cccc(C(=O)O)c3)[nH]c3c(-c4c(C)ncnc4C)c(Cl)ccc23)cc(C)c1Cl` [Example 748, 3-[[[6-Chloro-3-[3-(4-chloro-3,5-dimethyl-phenoxy)propyl]-7-(4,6-dimethylpyrimidin-5-yl)-1H-indole-2-carbonyl]amino]methyl]benzoic acid], at Mcl-1, the Ki worked out at 0.0063 µM.
